Assay results taken from US9586952B2, “Polycyclic estrogen receptor modulators and uses thereof” (SERAGON PHARMACEUTICALS, INC., priority 2013, dated 2017).

Assays:
MCF-7 cells = assay: MCF7 Viability Assay (Breast Cancer Cell Viability Assay); format: cell-based; settings: 5 days' compound exposure, CellTiter-Glo; for IC50: Homo sapiens, MCF7, 120 h
Method: MCF-7 cells were adjusted to a concentration of 20,000 cells per mL in RPMI containing 10% FBS and 20 mM HEPES. 16 microliters of the cell suspension (320 cells) was added to each well of a 384 well plate, and the cells were incubated overnight to allow the cells to adhere. The following day an eleven point, serial semilog dilution of each compound was added to the cells in 16 μL at a final concentration ranging from 0.3-0.000003 μM. After 5 days' compound exposure, 16 μL of CellTiter-GLo (Promega, Madison Wis.) was added to the cells, and the relative luminescence units (RLUs) of each well were determined. CellTiter-Glo added to 32 μL of medium without cells was used to obtain a background value. The Percent viability of each sample was determined as follows: (RLU sample-RLU background/RLU untreated cells-RLU background)×100=% viability.

ER-α = molecular target: T1, ER-α (Homo sapiens, UniProt P03372); assay: Breast Cancer Cell ER-α In Cell Western Assay (SP1); format: cell-based; settings: MCF-7 cells, 4 or 24 hr post compound addition, SP1 antibody; for Emax: MCF7, read-out: ER-α In Cell Western Assay (SP1) Max Response; for DC50: read-out: ER-α In Cell Western Assay (SP1) IC50
T1 construct: endogenous in cells; host or cells: MCF-7
T1 sequence (P03372 1-595): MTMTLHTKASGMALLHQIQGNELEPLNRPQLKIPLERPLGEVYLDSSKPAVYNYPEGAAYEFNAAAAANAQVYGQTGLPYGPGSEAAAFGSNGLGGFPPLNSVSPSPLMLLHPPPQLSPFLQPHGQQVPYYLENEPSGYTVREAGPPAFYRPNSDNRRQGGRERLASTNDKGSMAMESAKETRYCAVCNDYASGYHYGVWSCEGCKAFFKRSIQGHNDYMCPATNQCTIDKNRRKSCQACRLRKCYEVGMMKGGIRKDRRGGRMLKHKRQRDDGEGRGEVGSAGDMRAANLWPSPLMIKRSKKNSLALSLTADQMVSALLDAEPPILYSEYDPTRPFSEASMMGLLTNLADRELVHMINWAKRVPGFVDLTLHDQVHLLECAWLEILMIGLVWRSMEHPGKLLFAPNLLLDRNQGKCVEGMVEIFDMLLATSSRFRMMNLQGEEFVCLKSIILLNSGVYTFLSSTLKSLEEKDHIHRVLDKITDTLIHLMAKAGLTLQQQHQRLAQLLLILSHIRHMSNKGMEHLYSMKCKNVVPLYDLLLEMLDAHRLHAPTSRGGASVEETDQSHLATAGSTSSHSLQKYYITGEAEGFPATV
Method: MCF-7 cells were adjusted to a concentration of 200,000 cells per mL in RPMI containing 10% charcoal-stripped FBS and 20 mM HEPES. 16 microliters of the cell suspension (3200 cells) was added to each well of a poly-D-lysine 384 well plate, and the cells were incubated overnight to allow the cells to adhere. The following day an eleven point, serial semilog dilution of each compound was added to the cells in 16 μL at a final concentration ranging from 0.3-0.000003 μM. At 4 or 24 hr post compound addition, the cells were fixed (10% formalin in PBS) for 20 minutes. Cells were permeablized in PBS 0.1% Triton and blocked with LICOR blocking buffer (50 μl/well, 90′). The wells were then incubated overnight at 4° C. with SP1 rabbit monoclonal Ab (Thermo Scientific) diluted 1:1000 in LICOR blocking buffer/0.1% Tween-20. Wells which were treated with blocking buffer with Tween but no antibody were used as a background control. Wells were washed with 0.1% Tween-20/PBS and then incubated in goat anti-rabbit IRDye™ 800 CW (LICOR Inc.; 1:10000) and DRAQ5 DNA dye (1:2000 for 2 mM stock) diluted in LICOR blocking buffer containing 0.1% Tween-20 and 0.01% SDS for 60 minutes. Cells were washed (50 μl/well, 5′ each) in 0.1% Tween-20/PBS. Plates were scanned on a LICOR Odyssey infrared imaging system. Integrated intensities in the 800 nm channel and 700 nm channel were measured to determine levels of ER and DNA respectively. Percent ER levels were determined as follows: (Integrated intensity 800 nm sample/integrated intensity 700 nm sample)/(Integrated intensity 800 nm untreated cells/integrated intensity 700 nm untreated cells)×100=% ER levels.

Row | Compound | IC50 (MCF-7 cells) | Emax (ER-α) | DC50 (ER-α) | MCF7 Viability Assay Max Response (MCF-7 cells)
1 | O=C(O)/C=C/c1ccc(/C(=C(\c2ncc(C(F)(F)F)cc2Cl)C2CCC2)c2ccc(N3CCOCC3)cc2)cc1 [Example 57, (E)-3-(4-((E)-2-(3-Chloro-5-(trifluoromethyl)pyridin-2-yl)-2-cyclobutyl-1-(4-morpholinophenyl)vinyl)phenyl)acrylic acid] | ≤ 100 nM | ≥ 40% | ≤ 100 nM | ++ (++ = a single % value ≧ 40%)
2 | N#Cc1cc(Cl)ccc1/C(=C(\c1ccc(/C=C/C(=O)O)cc1)c1ccc(-c2cncs2)cc1)C1CCC1 [Example 62, (E)-3-(4-((E)-2-(4-Chloro-2-cyanophenyl)-2-cyclobutyl-1-(4-(thiazol-5-yl)phenyl)vinyl)phenyl)acrylic acid] | ≤ 100 nM | ≥ 40% | ≤ 100 nM | ++ (++ = a single % value ≧ 40%)
3 | c1ccc(/C(=C(\c2ccc(OCCN3CCCC3)cc2)c2ccc(-c3cn[nH]c3)cc2)C2CCC2)cc1 [Example 63, (Z)-4-(4-(2-cyclobutyl-2-phenyl-1-(4-(2-(pyrrolidin-1-yl)ethoxy)phenyl)vinyl)phenyl)-1H-pyrazole] | ≤ 100 nM | ≥ 40% | ≤ 100 nM | ++ (++ = a single % value ≧ 40%)
4 | COc1ccc(/C(=C(\c2ccc(/C=C/C(=O)O)cc2)c2ccc(-c3nn[nH]n3)cc2)C2CCC2)c(Cl)c1 [Example 50, (E)-3-(4-((E)-1-(4-(2H-Tetrazol-5-yl)phenyl)-2-(2-chloro-4-methoxyphenyl)-2-cyclobutylvinyl)phenyl)acrylic acid] | > 100 nM | ≥ 40% | > 100 nM | ++ (++ = a single % value ≧ 40%)
5 | N#Cc1ccc(/C(=C(\c2ccc(/C=C/C(=O)O)cc2)c2ccc(-c3cncs3)cc2)C2CCC2)c(Cl)c1 [Example 5, (E)-3-(4-((E)-2-(2-Chloro-4-cyanophenyl)-2-cyclobutyl-1-(4-(thiazol-5-yl)phenyl)vinyl)phenyl)acrylic acid] | ≤ 100 nM | ≥ 40% | ≤ 100 nM | ++ (++ = a single % value ≧ 40%)
6 | O=C(O)/C=C/c1ccc(/C(=C(\c2ccccc2)C2CCC2)c2ccc(-c3cncs3)cc2)cc1 [Example 13, (E)-3-(4-((E)-2-Cyclobutyl-2-phenyl-1-(4-(thiazol-5-yl)phenyl)vinyl)phenyl)acrylic acid] | ≤ 100 nM | ≥ 40% | ≤ 100 nM | ++ (++ = a single % value ≧ 40%)
7 | Cc1cccnc1/C(=C(\c1ccc(/C=C/C(=O)O)cc1)c1ccc(-c2cn[nH]c2)cc1)C1CCC1 [Example 40, (E)-3-(4-((E)-1-(4-(1H-Pyrazol-4-yl)phenyl)-2-cyclobutyl-2-(3-methylpyridin-2-yl)vinyl)phenyl)acrylic acid] | > 100 nM | ≥ 40% | ≤ 100 nM | ++ (++ = a single % value ≧ 40%)
8 | O=C(O)/C=C/c1ccc(/C(=C(\c2ccc(F)cc2Cl)C2CCC2)c2ccc(-c3ccncc3)cc2)cc1 [Example 56, (E)-3-(4-((E)-2-(2-Chloro-4-fluorophenyl)-2-cyclobutyl-1-(4-(pyridin-4-yl)phenyl)vinyl)phenyl)acrylic acid] | ≤ 100 nM | ≥ 40% | ≤ 100 nM | ++ (++ = a single % value ≧ 40%)
9 | O=C(O)/C=C/c1ccc(/C(=C(\c2ccccc2)C2CCC2)c2ccc(-c3cnn(CCO)c3)cc2)cc1 [Example 67, (E)-3-(4-((E)-2-Cyclobutyl-1-(4-(1-(2-hydroxyethyl)-1H-pyrazol-4-yl)phenyl)-2-phenylvinyl)phenyl)acrylic acid] | ≤ 100 nM | ≥ 40% | ≤ 100 nM | ++ (++ = a single % value ≧ 40%)
10 | Cc1cscc1/C(=C(\c1ccc(/C=C/C(=O)O)cc1)c1ccc(-c2cnn(CCO)c2)cc1)C1CCC1 [Example 68, (E)-3-(4-((E)-2-Cyclobutyl-1-(4-(1-(2-hydroxyethyl)-1H-pyrazol-4-yl)phenyl)-2-(4-methylthiophen-3-yl)vinyl)phenyl)acrylic acid] | ≤ 100 nM | ≥ 40% | ≤ 100 nM | ++ (++ = a single % value ≧ 40%)
11 | O=C(O)/C=C/c1ccc(/C(=C(\c2ncc(C(F)(F)F)cc2Cl)C2CCC2)c2ccc(-c3cncs3)cc2)cc1 [Example 59, (E)-3-(4-((E)-2-(3-Chloro-5-(trifluoromethyl)pyridin-2-yl)-2-cyclobutyl-1-(4-(thiazol-5-yl)phenyl)vinyl)phenyl)acrylic acid] | ≤ 100 nM | ≥ 40% | ≤ 100 nM | ++ (++ = a single % value ≧ 40%)

Second part, led by results:

Row | IC50 (MCF-7 cells) | Emax (ER-α) | DC50 (ER-α) | Compound | MCF7 Viability Assay Max Response (MCF-7 cells)
12 | > 100 nM | ≥ 40% | > 100 nM | CC/C(=C(/c1ccc(/C=C/C(=O)O)cc1)c1ccc(-n2ccnc2)cc1)c1ccccc1 [Example 17, (E)-3-(4-((E)-1-(4-(1H-Imidazol-1-yl)phenyl)-2-phenylbut-1-en-1-yl)phenyl)acrylic acid] | ++ (++ = a single % value ≧ 40%)
13 | > 100 nM | ≥ 40% | ≤ 100 nM | CC/C(=C(/c1ccc(/C=C/C(=O)O)cc1)c1ccc(-c2cscn2)cc1)c1ccccc1 [Example 10, (E)-3-(4-((E)-2-Phenyl-1-(4-(thiazol-4-yl)phenyl)but-1-en-1-yl)phenyl)acrylic acid] | ++ (++ = a single % value ≧ 40%)
14 | ≤ 100 nM | ≥ 40% | ≤ 100 nM | CC/C(=C(/c1ccc(/C=C/C(=O)O)cc1)c1ccc(N2CCOCC2)cc1)c1ccccc1 [Example 16, (E)-3-(4-((E)-1-(4-Morpholinophenyl)-2-phenylbut-1-en-1-yl)phenyl)acrylic acid] | ++ (++ = a single % value ≧ 40%)
15 | > 100 nM | ≥ 40% | ≤ 100 nM | CC/C(=C(/c1ccc(/C=C/C(=O)O)cc1)c1ccc(N2CCN(C)CC2)cc1)c1ccccc1 [Example 23, (E)-3-(4-((E)-1-(4-(4-Methylpiperazin-1-yl)phenyl)-2-phenylbut-1-en-1-yl)phenyl)acrylic acid] | ++ (++ = a single % value ≧ 40%)
16 | > 100 nM | < 40% | > 100 nM | CC/C(=C(/c1ccc(/C=C/C(=O)O)cc1)c1cccc(-c2nccs2)c1)c1ccccc1 [Example 11, (E)-3-(4-((E)-2-Phenyl-1-(3-(thiazol-2-yl)phenyl)but-1-en-1-yl)phenyl)acrylic acid] | + (+ = a single % value < 40%)
17 | ≤ 100 nM | ≥ 40% | ≤ 100 nM | CC/C(=C(/c1ccc(/C=C/C(=O)O)cc1)c1ccc(-c2cnco2)cc1)c1ccccc1 [Example 18, (E)-3-(4-((E)-1-(4-(Oxazol-5-yl)phenyl)-2-phenylbut-1-en-1-yl)phenyl)acrylic acid] | ++ (++ = a single % value ≧ 40%)
